Measurements from paper PMC6494831, “Drug-like Fragments Inhibit agr-Mediated Virulence Expression in Staphylococcus aureus” (Scientific Reports, 2019).
Read-outs that look alike come from different tables or passages of the source.

Target: AgrA (Staphylococcus aureus, UniProt P0A0I7)
Assay: ITC with purified AgrAC, one-site fit, N fixed to […]
Format: binding

Chain of AgrA (P0A0I7 137-238): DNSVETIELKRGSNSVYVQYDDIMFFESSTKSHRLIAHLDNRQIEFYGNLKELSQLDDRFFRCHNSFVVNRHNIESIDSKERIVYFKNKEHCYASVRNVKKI

SMILES | Kd (read-out: Kd) | Kd
Cc1cc(O)cc(C)c1C#N [compound 3, 4-hydroxy-2,6-dimethylbenzonitrile] | 110 ± 45.6 µM | 
Cc1ccc(-c2nc(C(=O)O)cs2)cc1 [compound 2, 2-(4-methylphenyl)-1,3-thiazole-4-carboxylic acid] |  | 417 ± 62.9 µM
O=C(O)C1c2ccccc2Oc2ccccc21 [compound 1, 9H-xanthene-9-carboxylic acid] |  | 485 ± 39.3 µM
